Reference: ChEMBL document CHEMBL3779879, “Structural hybridization of three aminoglycoside antibiotics yields a potent broad-spectrum bactericide that eludes bacterial resistance enzymes” (2016)
Converted amounts (≈) assume the structure as drawn.

Key:
Type in all cases: functional
Escherichia coli [1] = assay: Antibacterial activity against Escherichia coli expressing AAC(3)-IV
Escherichia coli [2] = assay: Antibacterial activity against Escherichia coli expressing A-site methyltransferase ArmA
Escherichia coli [3] = assay: Antibacterial activity against Escherichia coli ATCC 25922
Staphylococcus aureus [4] = assay: Antibacterial activity against Staphylococcus aureus ATCC 29213
Klebsiella pneumoniae = assay: Antibacterial activity against Klebsiella pneumoniae ATCC 10031
Acinetobacter baumannii [5] = assay: Antibacterial activity against Acinetobacter baumannii
Pseudomonas aeruginosa [6] = assay: Antibacterial activity against Pseudomonas aeruginosa ATCC 27853 expressing APH(3')-IIa
Enterobacter cloacae = assay: Antibacterial activity against Enterobacter cloacae expressing APH(3')-I, ANT(2'')-I, AAC(6')
Escherichia coli [7] = assay: Antibacterial activity against Escherichia coli expressing APH(3')-Ib
Staphylococcus aureus [8] = assay: Antibacterial activity against Staphylococcus aureus expressing APH(3'/5'')-III
Acinetobacter baumannii [9] = assay: Antibacterial activity against Acinetobacter baumannii expressing AAC(3)-I, APH(3')-VI, ANT(2'')-I
Staphylococcus aureus [10] = assay: Antibacterial activity against Staphylococcus aureus expressing ANT(4')-I
Pseudomonas aeruginosa [11] = assay: Antibacterial activity against Pseudomonas aeruginosa expressing ANT(4')-II
Escherichia coli [12] = assay: Antibacterial activity against Escherichia coli expressing ANT(2'')-I
Pseudomonas aeruginosa [13] = assay: Antibacterial activity against Pseudomonas aeruginosa expressing AAC(6')-II
Staphylococcus aureus [14] = assay: Antibacterial activity against Staphylococcus aureus expressing AAC(6')/APH(2'')

Structure (SMILES)	MIC (Escherichia coli [1]) [µg/mL]	MIC (Escherichia coli [2]) [µg/mL]	MIC (Escherichia coli [3]) [µg/mL]	MIC (Staphylococcus aureus [4]) [µg/mL]	MIC (Klebsiella pneumoniae) [µg/mL]	MIC (Acinetobacter baumannii [5]) [µg/mL]	MIC (Pseudomonas aeruginosa [6]) [µg/mL]	MIC (Enterobacter cloacae) [µg/mL]	MIC (Escherichia coli [7]) [µg/mL]	MIC (Staphylococcus aureus [8]) [µg/mL]	MIC (Acinetobacter baumannii [9]) [µg/mL]	MIC (Staphylococcus aureus [10]) [µg/mL]	MIC (Pseudomonas aeruginosa [11]) [µg/mL]	MIC (Escherichia coli [12]) [µg/mL]	MIC (Pseudomonas aeruginosa [13]) [µg/mL]	MIC (Staphylococcus aureus [14]) [µg/mL]
NCC[C@H](O)C(=O)N[C@@H]1C[C@H](N)[C@@H](O[C@H]2O[C@H](CO)[C@@H](O)[C@H](O)[C@H]2N)[C@H](O[C@@H]2O[C@H](CO)[C@@H](O[C@H]3O[C@@H](CN)[C@@H](O)[C@H](O)[C@H]3N)[C@H]2O)[C@H]1O	4 (≈ 5.58 µM)	4 (≈ 5.58 µM)	2 (≈ 2.79 µM)	2 (≈ 2.79 µM)	1 (≈ 1.4 µM)	2 (≈ 2.79 µM)	8 (≈ 11.2 µM)	8 (≈ 11.2 µM)	2 (≈ 2.79 µM)	32 (≈ 44.6 µM)	64 (≈ 89.3 µM)	> 64	4 (≈ 5.58 µM)	8 (≈ 11.2 µM)	8 (≈ 11.2 µM)	32 (≈ 44.6 µM)
NCC[C@H](O)C(=O)N[C@@H]1C[C@H](N)[C@@H](O[C@H]2O[C@H](CN)[C@@H](O)[C@H](O)[C@H]2N)[C@H](O[C@@H]2O[C@H](CO)[C@@H](O)[C@H]2O)[C@H]1O	2 (≈ 3.6 µM)	2 (≈ 3.6 µM)	2 (≈ 3.6 µM)	8 (≈ 14.4 µM)	1 (≈ 1.8 µM)	1 (≈ 1.8 µM)	> 32	32 (≈ 57.6 µM)	1 (≈ 1.8 µM)	> 32	> 32	> 32	> 32	4 (≈ 7.2 µM)	> 32	> 32
NCC1=CC[C@@H](N)[C@@H](O[C@H]2[C@H](O[C@@H]3O[C@H](CO)[C@@H](O)[C@H]3O)[C@@H](O)[C@H](N)C[C@@H]2N)O1	> 64	64 (≈ 152 µM)	64 (≈ 152 µM)	16 (≈ 38.1 µM)	16 (≈ 38.1 µM)	> 64	16 (≈ 38.1 µM)	> 64	64 (≈ 152 µM)	> 64	> 64	16 (≈ 38.1 µM)	64 (≈ 152 µM)	> 64	> 64	> 64
NCC[C@H](O)C(=O)N[C@@H]1C[C@H](N)[C@@H](O[C@H]2OC(CN)=CC[C@H]2N)[C@H](O[C@@H]2O[C@H](CO)[C@@H](O)[C@H]2O)[C@H]1O	8 (≈ 15.3 µM)	8 (≈ 15.3 µM)	8 (≈ 15.3 µM)	8 (≈ 15.3 µM)	4 (≈ 7.67 µM)	4 (≈ 7.67 µM)	4 (≈ 7.67 µM)	> 64	4 (≈ 7.67 µM)	16 (≈ 30.7 µM)	8 (≈ 15.3 µM)	8 (≈ 15.3 µM)	8 (≈ 15.3 µM)	8 (≈ 15.3 µM)	16 (≈ 30.7 µM)	16 (≈ 30.7 µM)
N[C@@H]1CC=C(CO)O[C@@H]1O[C@H]1[C@H](O[C@@H]2O[C@H](CO)[C@@H](O)[C@H]2O)[C@@H](O)[C@H](N)C[C@@H]1N	> 64	> 64	> 64	> 64	> 64	> 64	> 64	> 64	> 64	> 64	> 64	> 64	> 64	> 64	> 64	> 64
NCC1O[C@H](O[C@H]2[C@@H](O)[C@H](O[C@H]3[C@H](O)[C@@H](N)C[C@@H](N)[C@@H]3O[C@H]3O[C@H](CN)[C@@H](O)[C@H](O)[C@H]3N)O[C@@H]2CO)[C@H](N)[C@@H](O)[C@@H]1O (stereo partly specified)	2 (≈ 3.25 µM)	1 (≈ 1.63 µM)	2 (≈ 3.25 µM)	0.5 (≈ 0.813 µM)	0.5 (≈ 0.813 µM)	1 (≈ 1.63 µM)	32 (≈ 52.1 µM)	> 64	64 (≈ 104 µM)	> 64	> 64	> 64	8 (≈ 13 µM)	2 (≈ 3.25 µM)	8 (≈ 13 µM)	> 64
CNCC1=CC[C@H](N)[C@H](O[C@H]2[C@H](O[C@@H]3O[C@H](CO)[C@@H](O[C@@H]4O[C@H](CN)[C@H](O)[C@@H](O)[C@@H]4N)[C@H]3O)[C@@H](O)[C@H](N)C[C@@H]2N)O1	8 (≈ 13.5 µM)	16 (≈ 26.9 µM)	8 (≈ 13.5 µM)	1 (≈ 1.68 µM)	2 (≈ 3.36 µM)	4 (≈ 6.73 µM)	2 (≈ 3.36 µM)	> 64	> 64	16 (≈ 26.9 µM)	> 64	2 (≈ 3.36 µM)	4 (≈ 6.73 µM)	16 (≈ 26.9 µM)	> 64	> 64
NCC[C@H](O)C(=O)N[C@@H]1C[C@H](N)[C@@H](O[C@H]2OC(CN)=CC[C@H]2N)[C@H](O[C@@H]2O[C@H](CO)[C@@H](O[C@@H]3O[C@H](CN)[C@H](O)[C@@H](O)[C@@H]3N)[C@H]2O)[C@H]1O	1 (≈ 1.47 µM)	1 (≈ 1.47 µM)	0.5 (≈ 0.733 µM)	0.5 (≈ 0.733 µM)	0.5 (≈ 0.733 µM)	0.5 (≈ 0.733 µM)	0.25 (≈ 0.367 µM)	8 (≈ 11.7 µM)	0.25 (≈ 0.367 µM)	1 (≈ 1.47 µM)	1 (≈ 1.47 µM)	1 (≈ 1.47 µM)	0.5 (≈ 0.733 µM)	4 (≈ 5.87 µM)	0.5 (≈ 0.733 µM)	2 (≈ 2.93 µM)
CN[C@@H](C)[C@@H]1CC[C@@H](N)[C@@H](O[C@H]2[C@H](O)[C@@H](O[C@H]3OC[C@](C)(O)[C@H](NC)[C@H]3O)[C@H](N)C[C@@H]2N)O1	16 (≈ 33.5 µM)	> 64	0.5 (≈ 1.05 µM)	0.5 (≈ 1.05 µM)	0.25 (≈ 0.523 µM)	2 (≈ 4.19 µM)	0.5 (≈ 1.05 µM)	32 (≈ 67 µM)	0.25 (≈ 0.523 µM)	0.5 (≈ 1.05 µM)	> 64	0.5 (≈ 1.05 µM)	2 (≈ 4.19 µM)	64 (≈ 134 µM)	32 (≈ 67 µM)	> 64
NC[C@H]1O[C@@H](O[C@H]2[C@@H](O)[C@H](O[C@@H]3[C@@H](O)[C@H](N)C[C@H](N)[C@H]3O[C@@H]3OC(CO)=CC[C@@H]3N)O[C@@H]2CO)[C@@H](N)[C@H](O)[C@H]1O (stereo in doubt)	> 64	> 64	> 64	8 (≈ 13.8 µM)	> 64	> 64	> 64	> 64	> 64	> 64	> 64	16 (≈ 27.5 µM)	> 64	> 64	> 64	> 64
NCC1=CC[C@H](N)[C@H](O[C@H]2[C@H](O[C@@H]3O[C@H](CO)[C@@H](O[C@@H]4O[C@H](CN)[C@H](O)[C@@H](O)[C@@H]4N)[C@H]3O)[C@@H](O)[C@H](N)C[C@@H]2N)O1 (stereo in doubt)	8 (≈ 13.8 µM)	2 (≈ 3.44 µM)	2 (≈ 3.44 µM)	1 (≈ 1.72 µM)	0.5 (≈ 0.861 µM)	1 (≈ 1.72 µM)	0.5 (≈ 0.861 µM)	> 64	> 64	16 (≈ 27.6 µM)	> 64	1 (≈ 1.72 µM)	1 (≈ 1.72 µM)	2 (≈ 3.44 µM)	> 64	64 (≈ 110 µM)
